Assay results from patent US12029744B2, “Bicyclic heteroaryl derivatives as ectonucleotide pyrophosphatase phosphodiesterase 1 inhibitors” (Riboscience LLC, priority 2019, dated 2024).

Assays:
HGS tumor model = test: Anti-tumor activity in HGS tumor model; format: in vivo; conditions: animals treated with 20/kg of compound, day 42 after inoculation (vehicle group 645)
From the text: […]

ENPP1 = target: T1, ENPP1 (Homo sapiens, UniProt P22413); test: Measurement of pNP-TMP hydrolysis by ENPP1 (enzyme activity assay, absorbance at 405 nm); format: biochemical; conditions: substrate pNP-TMP 500 μM, KM 232 μM; Ki from IC50 by Cheng-Prusoff; read-out: Ki (pNP-TMP)
T1 sequence (P22413 1-925): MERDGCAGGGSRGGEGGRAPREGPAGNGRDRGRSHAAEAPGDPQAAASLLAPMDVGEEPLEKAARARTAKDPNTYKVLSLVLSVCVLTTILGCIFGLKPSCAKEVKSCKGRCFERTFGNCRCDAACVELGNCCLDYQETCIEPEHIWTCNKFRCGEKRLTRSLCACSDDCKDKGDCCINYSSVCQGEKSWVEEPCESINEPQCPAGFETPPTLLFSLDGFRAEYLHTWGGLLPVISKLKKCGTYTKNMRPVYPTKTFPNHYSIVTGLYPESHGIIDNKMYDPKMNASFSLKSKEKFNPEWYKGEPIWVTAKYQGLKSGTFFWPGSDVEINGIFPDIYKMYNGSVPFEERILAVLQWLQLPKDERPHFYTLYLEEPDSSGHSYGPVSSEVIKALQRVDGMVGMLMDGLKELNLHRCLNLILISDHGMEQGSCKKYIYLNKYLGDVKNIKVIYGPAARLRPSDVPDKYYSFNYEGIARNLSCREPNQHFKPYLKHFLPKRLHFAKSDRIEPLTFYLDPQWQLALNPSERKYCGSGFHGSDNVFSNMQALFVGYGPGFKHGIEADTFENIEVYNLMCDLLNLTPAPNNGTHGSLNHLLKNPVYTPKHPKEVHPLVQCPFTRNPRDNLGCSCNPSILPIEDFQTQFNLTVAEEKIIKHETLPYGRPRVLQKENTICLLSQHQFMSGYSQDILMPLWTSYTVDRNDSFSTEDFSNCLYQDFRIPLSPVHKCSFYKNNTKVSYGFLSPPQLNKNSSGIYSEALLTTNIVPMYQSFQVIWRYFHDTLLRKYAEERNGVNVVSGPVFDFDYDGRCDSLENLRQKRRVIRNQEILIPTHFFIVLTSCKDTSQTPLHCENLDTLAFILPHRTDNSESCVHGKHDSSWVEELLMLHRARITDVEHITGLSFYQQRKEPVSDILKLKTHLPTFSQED
Experimental: Measurement of pNP-TMP Hydrolysis by ENPP1
p-Nitrophenyl thymidine 5′-monophosphate (pNP-TMP) is a synthesized substrate for ENPP1. The ENPP1 enzyme activity assay with pNP-TMP substrate was conducted as follows:
Incubation of ENPP1 with compounds was set at 25° C. for 10 min. […] For each compound dilution, wells with assay buffer (50 mM Tris-HCl, pH8.8, 250 mM NaCl, 0.1 mg/ml BSA, 1% DMSO) only but no ENPP1 were included as controls for subtraction of test compound derived absorbance at 405 nm.
Absorbance at 405 nm was recorded immediately in kinetic mode by PerkinElmer 2300 Enspire multimode plate reader.
For each inhibitor, the specific ENPP1 activity was calculated using the following equation: ENPP1 activity (pmol/min/μg)=Adjusted Vmax (OD405 nm/min)×conversion factor (pmol/OD405 nm)/amount of enzyme (μg)
Adjusted Vmax=V0×(Km+(S))/(S).
V0=(OD405 nm with ENPP1−OD405 nm ENPP1 blank)/minutes. OD405 nm was plotted, with blank subtracted, against time (minutes), the initial linear rate is V0. […]
The slope is the conversion factor. The percent ENPP1 activity for each sample was calculated using the following equation: % enzyme activity=sample enzyme activity/MAX Activity×100%.
To determine the IC50 for each compound, compound concentration values and percent enzyme activity values were inserted into GraphPad Prism (GraphPad Prism version 7.0 for Windows, GraphPad Software, La Jolla California USA, www.graphpad.com), and Prism's Transform analysis was used to convert the x-axis values (compound concentration) to logarithms. A sigmoidal variable slope nonlinear regression analysis was performed using the following equation: Y=Bottom+(Top−Bottom)/(1+10^[…])).

Ki (ENPP1)	SMILES	tumor size (HGS tumor model)
	C=CC(=O)N1CCN(CCCn2c(=O)c(-c3c(Cl)c(OC)cc(OC)c3Cl)cc3cnc(NC)nc32)CC1 [8-(3-(4-acryloylpiperazin-1-yl)propyl)-6-(2,6-dichloro-3,5-dimethoxyphenyl)-2-(methylamino)pyrido[2,3-d]pyrimidin-7(8H)-one]	55 mm3
< 10 nM	OB(O)c1ccc(Cn2ccc3c(O)nccc32)cc1 [Compound 9, (4-((4-hydroxy-1H-pyrrolo[3,2-c]pyridin-1-yl)methyl)phenyl)boronic acid]	
< 100 nM	COC(=O)c1ccc2c(c1)ncn2Cc1ccc(B(O)O)cc1 [Compound 41, 2,2,2-trifluoroacetic acid--(4-((5-(methoxycarbonyl)-1H-benzo[d]imidazol-1-yl)methyl)phenyl)boronic acid (1/1)]	
< 100 nM	Cc1nc2cc(C(N)=O)ccc2n1Cc1ccc(P(=O)(O)O)cc1 [Compound 136, 4-((5-carbamoyl-2-methyl-1,3-benzodiazol-1-yl)methyl)phenylphosphonic acid]	
